Like-named read-outs stand apart in the source and are kept apart here.
Assays:
[1] = test system: Ba/F3-Δ19del/T790M/C797S cells; details: 72 hours, CTG; data recorded in PCT/CN2021/075994; read-out: Ba/F3/EGFR Δ19del/T790M/C797S IC50; cited from earlier work
Ba/F3 EGFR WT cells = details: 72 hours, CTG; data recorded in PCT/CN2021/075994; read-out: BaF3 EGFR WT IC50; cited from earlier work
[2] = test system: human epidermal cancer cell A431 carrying EGFR WT; details: 72 hours, CTG; data recorded in PCT/CN2021/075994; cited from earlier work
[3] = Measurement of crystal form stability (HPLC chemical purity, XRPD); format: physicochemical; details: for Chemical purity (%) 0 days: HPLC
Protocol: The X-ray powder diffraction pattern detection equipment and method of the present invention are as shown in the X-ray powder diffraction table in the instrument and analysis method. After the test compounds are placed under different temperature, humidity and light conditions for a period of time, the purity is tested. Purity testing method: Use high-performance liquid chromatography (HPLC) to detect the chemical purity of this product. Determine according to high performance liquid chromatography (“Chinese Pharmacopoeia” 2020 edition, Part IV, General Chapter 0512). […] XRPD characterization was performed on the samples after being placed under different temperature, humidity and light conditions for a period of time.

[4] = Pharmacokinetic test, oral administration in male SD rats; format: in vivo, rat; details: 50 mg/kg, distilled water, plasma
Protocol: Male SD rats purchased from Beijing Weitonglihua Experimental Animal Technology Co Ltd. were used for oral administration PK studies. The dose was 50 mg/kg, the preparation was distilled water, and the compound concentrations corresponding to the test compounds were 5 mg/mL, ready for use. Oral administration is by oral gavage at 10 mL/kg. Blood was collected through the rat orbital venous plexus, and […] was taken at each time point into an EDTA anticoagulant tube. The blood collection time is: 15 min, 30 min, 1 h, 2 h, 4 h, 7 h, 24 h, 30 h, 48 h, centrifuge at 4000 rpm for 10 min, take the supernatant to obtain 100 μL plasma, and store it in a −80° C. refrigerator, spare. After precipitating the protein from the above plasma sample with acetonitrile, take the supernatant and mix it with water 1:1, and take 10 μL for LC-MS/MS detection.

[5] = DVS test (dynamic vapor sorption); format: physicochemical
Excerpt: Take crystal form A of the compound represented by Formula III for DVS measurement, and the obtained DVS spectrum is shown in FIG. 5-2.

In the case of `CCc1cc(Nc2ncc(Br)c(Nc3ccc4ncccc4c3P(C)(C)=O)n2)c(OC)cc1N1CCC(N2CCN(C)CC2)CC1` [Control Example 1, reference compound], the IC50 [1] is given as 9 nM, the IC50 (Ba/F3 EGFR WT cells) is given as 39.9 nM and the IC50 [2] is given as 245 nM.
For `COc1cc(N2CCC(N3CCN(C)CC3)CC2)c(C)cc1Nc1ncc(Br)c(Nc2ccc3nc(C4CC4)ccc3c2P(C)(C)=O)n1.O=C(O)C[C@H](O)C(=O)O` [Crystal form J of the compound represented by formula III], the “Chemical purity (%) 0 days” value [3] was 99.59%, the “Chemical purity (%) 92.5% RH” value ([3]; placement time 10 days) was 99.59% and the “Chemical purity (%) 4500 lx illumination” value ([3]; placement time 10 days) was 96.05%.
In the case of `COc1cc(N2CCC(N3CCN(C)CC3)CC2)c(C)cc1Nc1ncc(Br)c(Nc2ccc3nc(C4CC4)ccc3c2P(C)(C)=O)n1.O=C(O)C[C@H](O)C(=O)O` [Crystal form A of the compound represented by formula III], the “Chemical purity (%) 0 days” value [3] is reported as 98.85%, the “Chemical purity (%) 60° C.” value ([3]; 60° C., placement time 13 days) is reported as 98.80% and the “Chemical purity (%) 92.5% RH” value ([3]; placement time 13 days) is reported as 98.98%. For the same molecule, the “Chemical purity (%) 4500 lx illumination” value ([3]; placement time 13 days) was 98.83%, the AUClast [4] was 47593 ng·h/mL and the Cmax [4] was 2557 ng/mL. For the same molecule, the hygroscopic weight gain ([5]; 25° C./80% RH) was “about 3.43%”, the “sample weight after placement in DVS” value ([5]; 25° C./80% RH for 24 hours) was “remained basically unchanged” and the “crystal form after placement in DVS” value ([5]; 25° C./80% RH, after 24 hours) was “did not change”. The “crystal form before and after the DVS test” value ([5]; DVS, 25° C.) was “does not change”.
`COc1cc(N2CCC(N3CCN(C)CC3)CC2)c(C)cc1Nc1ncc(Br)c(Nc2ccc3nc(C4CC4)ccc3c2P(C)(C)=O)n1.O=C(O)C[C@H](O)C(=O)O` gave an AUC(0-t) ([4]; male, SD, rat, po) of 27400 ng·h/mL and a Cmax ([4]; male, SD, rat, po, read-out: Cmax) of 1990 ng/mL.
For `COc1cc(N2CCC(N3CCN(C)CC3)CC2)c(C)cc1Nc1ncc(Br)c(Nc2ccc3nc(C4CC4)ccc3c2P(C)(C)=O)n1` [(6-((5-bromo-2-((2-methoxy-5-methyl-4-(4-(4-methylpiperazin-1-yl))piperidin-1-yl)phenyl)amino)pyrimidin-4-yl)amino)-2-cyclopropylquinolin-5-yl)dimethylphosphine oxide], the IC50 [1] is listed as 6.8 nM, the IC50 (Ba/F3 EGFR WT cells) is listed as 151 nM and the IC50 [2] is listed as 1130 nM.

— patent publication US20240352053A1, “SALT AND CRYSTAL FORM OF EGFR INHIBITOR, AND COMPOSITION AND USE THEREOF” (BETTA PHARMACEUTICALS CO., LTD, priority 2021, published 2024)
